Measurements as given in US20060293307A1, “Oxazolidinone derivatives as antimicrobials” (priority 2002, published 2006).
In brackets after ≈: the same amount, converted by molar mass. Like-named read-outs stand apart in the source and are kept apart here.

What was measured:
M. tuberculosis ATCC = experiment: MIC against M. tuberculosis strains, agar dilution; assay type: cell-based, Mycobacterium tuberculosis; conditions: S. No. 03 Mt-, Middle Brook 7H10 + OADC, 37° C., 14-21 days
M. tuberculosis H37Rv = experiment: MIC against M. tuberculosis strains, agar dilution; assay type: cell-based, Mycobacterium tuberculosis; conditions: S. No. 04 Mt-, Middle Brook 7H10 + OADC, 37° C., 14-21 days
M. tuberculosis B-125 = experiment: MIC against M. tuberculosis strains, agar dilution; assay type: cell-based, Mycobacterium tuberculosis; conditions: S. No. 11 Mt-, Middle Brook 7H10 + OADC, 37° C., 14-21 days
M. tuberculosis V-591 = experiment: MIC against M. tuberculosis strains, agar dilution; assay type: cell-based, Mycobacterium tuberculosis; conditions: Middle Brook 7H10 + OADC, 37° C., 14-21 days
M. tuberculosis PC [1] = experiment: MIC against M. tuberculosis strains, agar dilution; assay type: cell-based, Mycobacterium tuberculosis; conditions: S. No. 16 Mt-, Middle Brook 7H10 + OADC, 37° C., 14-21 days
M. tuberculosis PC [2] = experiment: MIC against M. tuberculosis strains, agar dilution; assay type: cell-based, Mycobacterium tuberculosis; conditions: S. No. 17 Mt-, Middle Brook 7H10 + OADC, 37° C., 14-21 days
M. tuberculosis PC [3] = experiment: MIC against M. tuberculosis strains, agar dilution; assay type: cell-based, Mycobacterium tuberculosis; conditions: S. No. 22 Mt-, Middle Brook 7H10 + OADC, 37° C., 14-21 days
M. tuberculosis PC 4793 = experiment: MIC against M. tuberculosis strains, agar dilution; assay type: cell-based, Mycobacterium tuberculosis; conditions: Middle Brook 7H10 + OADC, 37° C., 14-21 days
M. tuberculosis H37Ra = experiment: MIC against M. tuberculosis strains, agar dilution; assay type: cell-based, Mycobacterium tuberculosis; conditions: S. No. 24 Mt-, Middle Brook 7H10 + OADC, 37° C., 14-21 days
M. avium ATCC 49601 = experiment: MIC against MAC strains, agar dilution; assay type: cell-based, Mycobacterium avium; conditions: S. No. 01 Ma-1, M. avium ATCC 49601, Middle Brook 7H10 + OADC, 37° C., 14-21 days
M. avium ATCC 1723 = experiment: MIC against MAC strains, agar dilution; assay type: cell-based, Mycobacterium avium; conditions: S. No. 03 Ma-3, M. avium ATCC 1723, Middle Brook 7H10 + OADC, 37° C., 14-21 days
M. intracellulare F21/12 = experiment: MIC against MAC strains, agar dilution; assay type: cell-based; conditions: S. No. 08 Mi-3, M. intracellulare F21/12, Middle Brook 7H10 + OADC, 37° C., 14-21 days
[4] = test system: M. avium intracellulare 4; experiment: MIC against MAC strains, agar dilution; assay type: cell-based; conditions: S. No. 11 Mai-2, M. avium intracellulare 4, Middle Brook 7H10 + OADC, 37° C., 14-21 days
[5] = test system: M. avium intracellulare 540/96; experiment: MIC against MAC strains, agar dilution; assay type: cell-based; conditions: S. No. 12 Mai-4, M. avium intracellulare 540/96, Middle Brook 7H10 + OADC, 37° C., 14-21 days
[6] = test system: M. avium intracellulare 1211/96; experiment: MIC against MAC strains, agar dilution; assay type: cell-based; conditions: S. No. 13 Mai-5, M. avium intracellulare 1211/96, Middle Brook 7H10 + OADC, 37° C., 14-21 days
[7] = test system: M. avium intracellulare 18/98; experiment: MIC against MAC strains, agar dilution; assay type: cell-based; conditions: S. No. 16 Mai-9, M. avium intracellulare 18/98, Middle Brook 7H10 + OADC, 37° C., 14-21 days
[8] = test system: M. avium intracellulare 19/97; experiment: MIC against MAC strains, agar dilution; assay type: cell-based; conditions: S. No. 17 Mai-10, M. avium intracellulare 19/97, Middle Brook 7H10 + OADC, 37° C., 14-21 days
S. warnerii ST360 = experiment: MIC, agar incorporation method; assay type: cell-based
Moraxella M6 = experiment: MIC, agar incorporation method; assay type: cell-based
H. influenzae 35056 = experiment: MIC against Haemophilus strains; assay type: cell-based; conditions: Haemophilus influenzae; s. No. 1, H. influenzae 35056; read-out: MIC
H. influenzae 23 = experiment: MIC against Haemophilus strains; assay type: cell-based; conditions: Haemophilus influenzae; s. No. 5, H. influenzae 23; read-out: MIC
H. influenzae 49766 = experiment: MIC against Haemophilus strains; assay type: cell-based; conditions: Haemophilus influenzae; s. No. 6, H. influenzae 49766; read-out: MIC
H. influenzae 451 = experiment: MIC against Haemophilus strains; assay type: cell-based; conditions: Haemophilus influenzae; s. No. 8, H. influenzae 451; read-out: MIC
[9] = Mycobacterium tuberculosis, read-out: MIC
[10] = Mycobacterium tuberculosis, V591, S. No. 13 Mt-, read-out: MIC
[11] = Mycobacterium tuberculosis, PC4793, S. No. 23 Mt-, read-out: MIC
[12] = Mycobacterium avium, ATCC49601, read-out: MIC
[13] = Mycobacterium avium, read-out: MIC

Structure (SMILES)	MIC (M. tuberculosis ATCC)	MIC (M. tuberculosis H37Rv)	MIC (M. tuberculosis B-125)	MIC (M. tuberculosis V-591; S. No. 13 Mt-)	MIC (M. tuberculosis PC [1])	MIC (M. tuberculosis PC [2])	MIC (M. tuberculosis PC [3])	MIC (M. tuberculosis PC 4793; S. No. 23 Mt-)	MIC (M. tuberculosis H37Ra)	MIC (M. avium ATCC 49601)	MIC (M. avium ATCC 1723)	MIC (M. intracellulare F21/12)	MIC [4]	MIC [5]	MIC [6]	MIC [7]	MIC [8]	MIC (S. warnerii ST360)	MIC (H. influenzae 35056)	MIC (H. influenzae 23)	also measured
NNC(=O)c1ccncc1 [INH]	>32 µg/mL	0.125 µg/mL	0.06 µg/mL	>32 µg/mL	8.0 µg/mL	32 µg/mL	>32 µg/mL	>32 µg/mL	0.25 µg/mL	>32 µg/mL	32 µg/mL	32 µg/mL	2.0 µg/mL	4.0 µg/mL	32 µg/mL	8.0 µg/mL	32 µg/mL	–	–	–	–
CC(=O)NC[C@H]1CN(c2ccc(N3CCOCC3)c(F)c2)C(=O)O1 [Linezolid, reference compound]	–	–	–	–	–	–	–	–	–	–	–	–	–	–	–	–	–	< 0.5 µg/mL	8 µg/mL (≈ 23.7 µM)	16 µg/mL (≈ 47.4 µM)	MIC (Moraxella M6; Moraxella, M6): 4 µg/mL (≈ 11.9 µM); MIC (H. influenzae 49766): 16 µg/mL (≈ 47.4 µM); MIC (H. influenzae 451): 16 µg/mL (≈ 47.4 µM); MIC (M. tuberculosis ATCC; [9]): 1 µg/mL; MIC (M. tuberculosis H37Rv; [9]): 1 µg/mL; MIC (M. tuberculosis V-591; [10]): > 32 µg/mL; MIC (M. tuberculosis PC [1]; [9]): 32 µg/mL; MIC (M. tuberculosis PC [2]; [9]): 32 µg/mL; MIC (M. tuberculosis PC [3]; [9]): 32 µg/mL; MIC (M. tuberculosis PC 4793; [11]): 8 µg/mL; MIC (M. tuberculosis H37Ra; [9]): 0.5 µg/mL; MIC (M. avium ATCC 49601; [12]): 0.5 µg/mL; MIC [4, 13]: 8 µg/mL
C[C@@H]1CN(c2c(F)c(N)c3c(=O)c(C(=O)O)cn(C4CC4)c3c2F)C[C@H](C)N1 [SPAR]	≦0.125 μg/ml	≦0.125 μg/ml	≦0.125 μg/ml	2.0 µg/mL	2.0 µg/mL	8.0 µg/mL	4.0 µg/mL	4.0 µg/mL	≦0.12 μg/ml	0.5 µg/mL	4.0 µg/mL	0.125 µg/mL	1.0 µg/mL	4.0 µg/mL	4.0 µg/mL	2.0 µg/mL	1.0 µg/mL	–	–	–	–
CCc1cc(C(N)=S)ccn1 [ETH]	2.0 µg/mL	≦0.125 μg/ml	2.0 µg/mL	>32 µg/mL	32 µg/mL	32 µg/mL	>32 µg/mL	>32 µg/mL	2.0 µg/mL	4.0 µg/mL	16 µg/mL	8.0 µg/mL	4.0 µg/mL	32 µg/mL	1.0 µg/mL	32 µg/mL	16 µg/mL	–	–	–	–
CC(=O)NC[C@H]1CN(c2ccc(N3CCN(c4ccc([N+](=O)[O-])s4)CC3)c(F)c2)C(=O)O1 [Compound No. 1, (S)—N-[[3-[3-Fluoro-4-[4-(5-nitro-2-thienyl)-1-piperazinyl]phenyl]-2-oxo-5-oxazolidinyl]methyl]acetamide]	–	–	–	–	–	–	–	–	–	–	–	–	–	–	–	–	–	0.125 µg/mL (≈ 0.27 µM)	8 µg/mL (≈ 17.3 µM)	> 16 µg/mL	MIC (Moraxella M6; S. No. 60, Moraxella M6, read-out: MIC): 0.25 µg/mL (≈ 0.539 µM); MIC (H. influenzae 49766): 8 µg/mL (≈ 17.3 µM); MIC (H. influenzae 451): 16 µg/mL (≈ 34.5 µM); MIC (M. tuberculosis V-591; [10]): 0.5 µg/mL; MIC (M. tuberculosis PC [1]; [9]): 0.25 µg/mL; MIC (M. tuberculosis PC [2]; [9]): 0.25 µg/mL; MIC (M. tuberculosis PC [3]; [9]): 0.5 µg/mL; MIC (M. tuberculosis PC 4793; [11]): > 32 µg/mL; MIC (M. tuberculosis H37Ra; [9]): ≤ 0.125 µg/mL; MIC (M. avium ATCC 49601; [12]): < 0.125 µg/mL; MIC (M. avium ATCC 1723; Mycobacterium avium, ATCC1723, read-out: MIC): 0.25 µg/mL; MIC (M. intracellulare F21/12; Mycobacterium intracellulare, read-out: MIC): 0.25 µg/mL; MIC [4, 13]: < 0.125 µg/mL; MIC [5, 13]: 1 µg/mL; MIC [6, 13]: 8 µg/mL; MIC [7, 13]: 0.25 µg/mL; MIC [8, 13]: 0.25 µg/mL
CC[C@H]1OC(=O)[C@H](C)[C@@H](O[C@H]2C[C@@](C)(OC)[C@@H](O)[C@H](C)O2)[C@H](C)[C@@H](O[C@@H]2O[C@H](C)C[C@H](N(C)C)[C@H]2O)[C@](C)(OC)C[C@@H](C)C(=O)[C@H](C)[C@@H](O)[C@]1(C)O [CLA]	32 µg/mL	32 µg/mL	16 µg/mL	32 µg/mL	8.0 µg/mL	4.0 µg/mL	8.0 µg/mL	8.0 µg/mL	<0.25 µg/mL	<0.25 µg/mL	1.0 µg/mL	1.0 µg/mL	<0.25 µg/mL	>32 µg/mL	0.25 µg/mL	32 µg/mL	32 µg/mL	–	–	–	–
